Reference: patent US6350585B1, “Reagent for assay of amylase isozyme activity” (priority 1998, dated 2002)

Key:
[1] = biological target: T1, P-type amylase (Calibzyme P) (Homo sapiens, UniProt P04746); assay: amylase isozyme activity assay with potassium thiocyanate as activator, P-type amylase sample; format: biochemical; details: for Change in absorbance, Containing Antibody (Composition A) / Change in absorbance, Without antibody (Composition B) / Relative sensitivity / Percent residual enzyme activity: P-type amylase; for Relative sensitivity: G3CNP at 900 mM = 100; for Percent residual enzyme activity: composition A/B
T1 construct: purchased International Reagents Corporation Calibzyme P
T1 sequence (P04746 16-511): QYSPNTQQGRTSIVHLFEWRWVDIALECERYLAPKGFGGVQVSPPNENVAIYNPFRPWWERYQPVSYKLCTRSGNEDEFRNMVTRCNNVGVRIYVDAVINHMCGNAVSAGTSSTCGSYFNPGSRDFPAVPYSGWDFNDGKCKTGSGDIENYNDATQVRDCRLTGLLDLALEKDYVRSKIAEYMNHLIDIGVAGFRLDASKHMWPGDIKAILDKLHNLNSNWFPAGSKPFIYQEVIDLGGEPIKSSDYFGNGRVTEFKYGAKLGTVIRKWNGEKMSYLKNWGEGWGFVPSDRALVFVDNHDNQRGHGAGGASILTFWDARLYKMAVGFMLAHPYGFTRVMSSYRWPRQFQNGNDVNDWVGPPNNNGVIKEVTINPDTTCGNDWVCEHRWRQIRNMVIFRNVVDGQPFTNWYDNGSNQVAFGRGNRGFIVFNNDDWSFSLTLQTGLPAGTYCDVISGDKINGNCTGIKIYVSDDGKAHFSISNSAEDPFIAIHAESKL
Protocol: A reagent for amylase isozyme activity assay comprising each composition as mentioned below was prepared. In the Table showing the composition, GalG2CNP (Example) is 2-chloro-4-nitrophenyl 4-O-β-D-galactopyranosylmaltoside, and G3CNP (Comparative Example) is 2-chloro-4-nitrophenylmaltotrioside.
S-type amylase-inhibiting antibody 88E8 (manufactured by Roche Diagnostics K.K.) 20 mg/L
S-type amylase-inhibiting antibody 66C7 (manufactured by Roche Diagnostics K.K.) 5 mg/L
(§1) Substrate (GalG2CNP (Example) or G3CNP (Comparative Example)) 2.6 mM
(2) P-type Amylase (Calibzyme P, Manufactured by International Reagents Corporation)
Each sample (0.05 mL was added to the reagent A (3 mL) and the reagent B (3 mL), respectively, and the mixtures were allowed to stand at 37° C. for 3 minutes. Then, the change in absorbance at 405 nm was assayed, and the change in absorbance per minute was calculated. The results are shown in Tables 1 and 2.
In the Tables, P is the case where P-type amylase was used as the sample, and S is the case where S-type amylase was used.
Percent residual enzyme activity (%)=(change in absorbance of composition A)/(change in absorbance of composition B)×100
Relative sensitivity (%)=(change in absorbance of composition B)/(change in absorbance of Comparative Example wherein potassium thiocyanate was 900 mM)×100

S-type amylase = biological target: T2, S-type amylase (Homo sapiens, UniProt P0DUB6); assay: S-type amylase activity assay of serum by subtraction (reagent F minus reagent G); format: biochemical; details: for S-type amylase activity value: change in absorbance with reagent F minus reagent G
T2 construct: Serum (1, 2 or 3); from tissue; host or cells: serum
T2 sequence (P0DUB6 16-511): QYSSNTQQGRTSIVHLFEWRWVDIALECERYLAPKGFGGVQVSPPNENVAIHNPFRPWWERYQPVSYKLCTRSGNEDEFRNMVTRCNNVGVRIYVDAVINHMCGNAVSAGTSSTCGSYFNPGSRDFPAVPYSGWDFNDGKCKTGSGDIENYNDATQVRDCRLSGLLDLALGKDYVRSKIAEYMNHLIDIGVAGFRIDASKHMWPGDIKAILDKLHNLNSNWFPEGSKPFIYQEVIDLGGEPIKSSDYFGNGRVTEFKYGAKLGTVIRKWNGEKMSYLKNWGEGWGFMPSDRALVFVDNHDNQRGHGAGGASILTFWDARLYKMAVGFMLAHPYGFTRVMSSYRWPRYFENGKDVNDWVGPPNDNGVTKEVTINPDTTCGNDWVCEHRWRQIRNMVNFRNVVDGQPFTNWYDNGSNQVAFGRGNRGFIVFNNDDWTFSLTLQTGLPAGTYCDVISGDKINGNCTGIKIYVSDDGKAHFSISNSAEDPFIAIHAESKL
Protocol: Potassium thiocyanate 140 mM
as §1
S-type amylase inhibitory antibody 88E8 (manufactured by Roche Diagnostics K.K.) 15 mg/L
S-type amylase inhibitory antibody 66C7 (manufactured by Roche Diagnostics K.K.) 1.25 mg/L
(1) Distilled Water(Blank)
Each of the above-mentioned reagents (0.05 mL) was added to the above reagent F (3 mL) and the mixtures were left standing at 37° C. for 3 minutes. Then, change in absorbance at 405 nm was assayed and change in absorbance per minute was calculated (change in absorbance a). The same procedure was repeated using reagent G and change in absorbance per minute was calculated (change in absorbance b). Then, change in absorbance b was subtracted from change in absorbance a to give change in absorbance c, which was converted to S-type amylase activity value at this composition using the molecular extinction coefficient of CNP.

- Change in absorbance, Containing Antibody (Composition A) ([1]; potassium thiocyanate 0 mM): 9.3 mABS/min
- Change in absorbance, Without antibody (Composition B) ([1]; potassium thiocyanate 0 mM): 9.3 mABS/min
- Relative sensitivity ([1]; potassium thiocyanate 0 mM): 19.4%
- Percent residual enzyme activity ([1]; potassium thiocyanate 0 mM): 100.0%
- Change in absorbance, Containing Antibody (Composition A) ([1]; potassium thiocyanate 50 mM): 17.1 mABS/min
- Change in absorbance, Without antibody (Composition B) ([1]; potassium thiocyanate 50 mM): 17.7 mABS/min
- Relative sensitivity ([1]; potassium thiocyanate 50 mM): 37.0%
- Percent residual enzyme activity ([1]; potassium thiocyanate 50 mM): 96.6%
- Change in absorbance, Containing Antibody (Composition A) ([1]; potassium thiocyanate 100 mM): 22.3 mABS/min
- Change in absorbance, Without antibody (Composition B) ([1]; potassium thiocyanate 100 mM): 23.4 mABS/min
- Relative sensitivity ([1]; potassium thiocyanate 100 mM): 48.9%
- Percent residual enzyme activity ([1]; potassium thiocyanate 100 mM): 95.3%
- Change in absorbance, Containing Antibody (Composition A) ([1]; potassium thiocyanate 140 mM): 26.1 mABS/min
- Change in absorbance, Without antibody (Composition B) ([1]; potassium thiocyanate 140 mM): 27.2 mABS/min
- Relative sensitivity ([1]; potassium thiocyanate 140 mM): 56.8%
- Percent residual enzyme activity ([1]; potassium thiocyanate 140 mM): 96.0%
- Change in absorbance, Containing Antibody (Composition A) ([1]; potassium thiocyanate 200 mM): 30.3 mABS/min
- Change in absorbance, Without antibody (Composition B) ([1]; potassium thiocyanate 200 mM): 31.6 mABS/min
- Relative sensitivity ([1]; potassium thiocyanate 200 mM): 66.0%
- Percent residual enzyme activity ([1]; potassium thiocyanate 200 mM): 95.9%
- Change in absorbance, Containing Antibody (Composition A) ([1]; potassium thiocyanate 300 mM): 37.3 mABS/min
- Change in absorbance, Without antibody (Composition B) ([1]; potassium thiocyanate 300 mM): 39.3 mABS/min
- Relative sensitivity ([1]; potassium thiocyanate 300 mM): 82.0%
- Percent residual enzyme activity ([1]; potassium thiocyanate 300 mM): 94.9%
- Change in absorbance, Containing Antibody (Composition A) ([1]; potassium thiocyanate 400 mM): 42.6 mABS/min
- Change in absorbance, Without antibody (Composition B) ([1]; potassium thiocyanate 400 mM): 43.7 mABS/min
- Relative sensitivity ([1]; potassium thiocyanate 400 mM): 91.2%
- Percent residual enzyme activity ([1]; potassium thiocyanate 400 mM): 97.5%
- Change in absorbance, Containing Antibody (Composition A) ([1]; potassium thiocyanate 500 mM): 46.6 mABS/min
- Change in absorbance, Without antibody (Composition B) ([1]; potassium thiocyanate 500 mM): 46.7 mABS/min
- Relative sensitivity ([1]; potassium thiocyanate 500 mM): 97.5%
- Percent residual enzyme activity ([1]; potassium thiocyanate 500 mM): 99.8%
- Change in absorbance, Containing Antibody (Composition A) ([1]; potassium thiocyanate 600 mM): 48.1 mABS/min
- Change in absorbance, Without antibody (Composition B) ([1]; potassium thiocyanate 600 mM): 47.5 mABS/min
- Relative sensitivity ([1]; potassium thiocyanate 600 mM): 99.2%
- Percent residual enzyme activity ([1]; potassium thiocyanate 600 mM): 101.3%
- Change in absorbance, Containing Antibody (Composition A) ([1]; potassium thiocyanate 700 mM): 49.9 mABS/min
- Change in absorbance, Without antibody (Composition B) ([1]; potassium thiocyanate 700 mM): 49.4 mABS/min
- Relative sensitivity ([1]; potassium thiocyanate 700 mM): 103.1%
- Percent residual enzyme activity ([1]; potassium thiocyanate 700 mM): 101.0%
- Change in absorbance, Containing Antibody (Composition A) ([1]; potassium thiocyanate 800 mM): 49.8 mABS/min
- Change in absorbance, Without antibody (Composition B) ([1]; potassium thiocyanate 800 mM): 48.8 mABS/min
- Relative sensitivity ([1]; potassium thiocyanate 800 mM): 101.9%
- Percent residual enzyme activity ([1]; potassium thiocyanate 800 mM): 102.0%
- Change in absorbance, Containing Antibody (Composition A) ([1]; potassium thiocyanate 900 mM): 48.6 mABS/min
- Change in absorbance, Without antibody (Composition B) ([1]; potassium thiocyanate 900 mM): 47.9 mABS/min
- Relative sensitivity ([1]; potassium thiocyanate 900 mM): 100.0%
- Percent residual enzyme activity ([1]; potassium thiocyanate 900 mM): 101.5%
- relative sensitivity of P-type amylase as multiple of the standard sensitivity ([1]; potassium thiocyanate 200 mM, standard = G3CNP at 900 mM): about ⅔
- S-type amylase activity value (S-type amylase; Serum 1): 23.4 IU/L
- S-type amylase activity value (S-type amylase; Serum 2): 87.5 IU/L
- S-type amylase activity value (S-type amylase; Serum 3): 71.9 IU/L
- Blank, change in absorbance per minute (S-type amylase; distilled water as sample, compositions F and G): 0.0006 ABS/min
SMILES: O=[N+]([O-])c1ccc(O[C@H]2O[C@H](CO)[C@@H](O[C@H]3O[C@H](CO)[C@@H](O[C@H]4O[C@H](CO)[C@@H](O)[C@H](O)[C@H]4O)[C@H](O)[C@H]3O)[C@H](O)[C@H]2O)c(Cl)c1 [Example G3CNP, 2-chloro-4-nitrophenylmaltotrioside, reference compound]
